Laboratory results as given in patent US9511120B2, “Use of the angiotensin-(1-9) peptide or derivatives thereof, use of vectors overexpressing the ACE2 enzyme that produces angiotensin-(1-9) for preparing medicaments useful for preventing, reverting, inhibiting and/or reducing hypertension and/or inducing vasodilation” (PONTIFICA UNIVERSIDAD CATÓLICA DE CHILE, priority 2012, dated 2016).
Where no end group is shown, it is not given here.

Assays:
Assay type in all cases: in vivo, rat
collagen I [1] = experiment: Goldblatt model: collagen I protein levels in the aortic wall; conditions: GB rats
From the text: (§1) Lewis normotensive rats (weight 150±10 g), which were separated randomly into the experimental hypertension model group or GB (Ocaranza et al. J. Hypertens. 20:413-20, 2002) or control group (S) were used. The latter corresponded to pseudo-operated animals. All animals were maintained under controlled conditions of light and darkness and had free access to food and water. Four weeks after surgery and at a blood pressure above 140 mmHg, GB rats were randomized for the chronic administration of angiotensin-(1-9) through an osmotic pump (602 ng kg^−1min^−1) via the jugular vein during two weeks. The animals were euthanized after 6 weeks post-surgery.
(§2) For the determination of collagen I and TGFβ-1, 30 μg and 50 μg of total proteins were used, respectively, diluted in SDS reducing buffer (50 mM tris-HCl, pH 7.4, NP-40 10%, NaCl 1M, Na deoxycholate 5%, EDTA 10 mg/mL, SDS 10%, aprotinin 1 mg/mL, leupeptin 0.1 mg/mL, PMSF 10 mM), they were then separated by SDS-PAGE gel electrophoresis 7%, and transferred to nitrocellulose membranes of […] to 300 mA for 1 h. The transfer of proteins was monitored by Ponceau red staining. […]

[2] = system: hypertensive rats by administration of angiotensin II; experiment: Hypertension induced by angiotensin II infusion: body mass, cardiac mass, systolic blood pressure
Method: (§3) Rats were subjected to the model of angiotensin II infusion (Grobe et al.: Am. J. Physiol. 292: H736-42, 2007). The animals were separated randomly into the following experimental groups: controls (Sham or pseudo-operated), infused with angiotensin II (300 ng/kg min), infused with angiotensin II and angiotensin-(1-9) (300 ng/kg min and 602 ng/kg min, respectively), and then infused with angiotensin II, angiotensin-(1-9) and the angiotensin-(1-7) receptor antagonist, A779 (300 ng/kg min, 602 ng/kg min, and 100 ng/kg min, respectively). In all cases the pumps operated at a flow of 0.5 μL/h and were implanted in the right jugular vein through a catheter fitted in an intrascapular subcutaneous pocket under anesthesia with ketamine HCl/xylazine (35 and 7 mg/kg i.p., respectively), for a period of 14 days.
Systolic blood pressure (SBP) was measured by the tail plethysmographic method in the animals. To such end, rats were lightly anesthetized with ethyl ether. The measurement was performed once a week by researchers blind to the treatment (Ocaranza et al. J. Hypertens. 20:413-20, 2002).
The degree of cardiac hypertrophy (CH) was measured by the ratio of the cardiac mass (CM), the body mass (BM) and relative cardiac mass (RCM; [CM/BM]*100) (Ocaranza et al., J. Hypertens. 28:1054-1064, 2010).
Four experimental groups of rats were established as described in Example 1. Group 1 corresponds to rats which were infused with saline (Sham). Group 2 corresponds to rats which were infused with only angiotensin II. Group 3 correspond to rats which were co-infused with angiotensin II and angiotensin-(1-9). And Group 4 corresponds to rats which were co-infused with angiotensin II, angiotensin-(1-9) and A779.

collagen I [3] = experiment: Angiotensin II infusion model: collagen I protein levels in the aortic wall by Western blot; conditions: angiotensin II-hypertensive rats
Method: as §3, §2

TGF-β mRNA = experiment: Angiotensin II infusion model: TGF-β mRNA levels in the aortic wall; conditions: angiotensin II-infused rats
Method: as §3
(§4) The procedure described by Ocaranza et al. (Hypertension 48:572-8, 2006) was followed. Briefly, total RNA was isolated from the aorta using the trizol method and quantified by spectroscopy at 260 nm/280 nm. The cDNA was obtained by reverse transcription from 1.5 μg of total RNA treated with DNAse. […] The band intensity was quantified by densitometry and normalized to the 18S ribosomal RNA band.

TGFβ-1 = experiment: Goldblatt model: TGFβ-1 protein levels in the aortic wall; conditions: GB rats
From the text: as §1, §2

MCP-1 mRNA = experiment: Angiotensin II infusion model: MCP-1 mRNA levels in the aortic wall
Method: as §3, §4

[4] = system: thoracic aortas of hypertensive rats by angiotensin II infusion; experiment: Angiotensin II infusion model: aortic hypertrophy by morphometry; conditions: thoracic aorta, 14 days infusion
Method: as §3
Aortic hypertrophy was determined by morphometry. Sections of the descending aorta of 5 μm thick, which were previously fixed in Bouin (1.3% picric acid, 9.5% formaldehyde and 4.8% acetic acid) for 24 hours, embedded in paraffin and stained with hematoxylin-eosin, were used, to be examined later in a light microscope as described by Igase et al. (Am. J. Physiol. 289:H1013-9, 2005). Briefly, images of the aortas were captured by a video camera (Nikon) fixed to a microscope (Nikon), and projected on a monitor; using the software Nis-Element. Lumen areas (LA) and total areas (TA) were calculated and recorded. The tunica media area (TMA) was obtained from the difference between the TA and LA of the aorta. The tunica media thickness (TMT) was defined as the region delimited by the external elastic lamina (EEL) and internal elastic lamina (IEL).

## DRVYIHPFH
Collagen I [1]
  reduction of the increase of collagen in the aorta wall: 54%
[2]; 1st week of infusion
  SBP 1st week: 141 ± 9 mmHg
[2]; 2nd week of infusion
  SBP 2nd week: 139 ± 11 mmHg
[2]; baseline, tail plethysmography
  Initial SBP: 123 ± 11 mmHg
[2]; co-administration with angiotensin II
  decrease of SBP as compared to angiotensin II: 10%
[2]; rats, infusion for 14 days
  CM: 984 ± 26 mg
  RCM (MV/MC): 386 ± 36
Collagen I [3]
  prevention of the increase of collagen in the aortic wall: 60%
TGF-β mRNA
  reduction of TGF-β mRNA levels: 62.5%
TGFβ-1
  decrease of TGFβ-1 levels: 47%
MCP-1 mRNA
  MCP-1 mRNA levels: no differences
[4]
  ratio of tunica media area (TMA) to LA: significantly prevented the increase
  thickness of the tunica media (TMT): significantly prevented the increase
